From patent publication US4055640A, “Compositions and methods for controlling the growth of bacteria, fungi and algae using certain derivatives of N-(2,2-dichlorovinyl)salicylamides” (Nippon Kayaku Co., Ltd., priority 1975, dated 1977) come the findings set out here.

The test system of data set [1] is seedling blight of rice plant (pathogen Fusarium sp. and Rhizoctonia sp.). Briefly: Exterminating test on seedling blight of rice plant (Experimental Example 1). Particulars: soil, 408 h, read-out: Percentage of healthy seedlings. The format is in vivo. The method, boiled down: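 Pathogen-contaminated nursery soil (Fusarium sp., Rhizoctonia sp.) mixed with 5% compound dust at 5 g per box; Nihonbare rice sown, grown 7 days at 17° C in lighting chamber, then moved to field. Assessed 10 days later as percentage of healthy seedlings; commercial 4% hydroxyisoxazol dust run as control.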

Data set [2] concerns rice plant (variety: Nihonbare). Briefly: Phytotoxicity on rice plant (Experimental Example 1). The format is in vivo. Particulars: 0.25g/box a.i. The method, then:
Exterminating test on seedling blight of rice plant Nursery boxes (60 × 30 × 3 cm) were filled with soil which were contaminated with pathogen (Fusarium sp. and Rhizoctonia sp.) The dust in which the present compound was contained in a ratio of 5% by weight was added in the box in a ratio of 5 grams per box and mixed well with soil. Thereafter, seeds of rice plant (variety: Nihonbare) were sowed in drills at a rate of 0.3 liter per box and grown up in a lighting chamber at 17° C. After 7 days from the sowing, the boxes were carried out in the field. Furthermore, 10 days thereafter the observations were made. Four percent (4%) dust of 3-hydroxy-5-methyl isoxazol (hereinafter referred to as hydroxyisoxazol) on the market was used as a control and tested by the same method. The test results are shown in Table 2 with a "percentage of healthy seedlings". The percentage of healthy seedlings was calculated as follows: […]

Data set [3] concerns Rhizoctonia solani (damping-off of cucumber). Briefly: Exterminating test on damping-off of cucumber (Experimental Example 3). The format is in vivo. Particulars: Rhizoctonia solani, soil, 240 h, read-out: Percentage of healthy seedlings. Summed up: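 Pots of field soil infested with Rhizoctonia solani (5 g/pot), sown with 10 Azumamidori cucumber seeds, then drenched with 50 ml aqueous suspension of 80% wettable powder and kept in greenhouse. PCNB 50% wettable powder as control. Percentage of healthy seedlings scored 10 days after inoculation.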

Data set [4] has as its system cucumber (variety: Azumamidori). Briefly: Phytotoxicity on cucumber (Experimental Example 3). The format is in vivo. Particulars: 1,000 ppm.
In data set [5] the test system is Fusarium wilt of cucumber. Put plainly: Exterminating test on Fusarium wilt of cucumber (Experimental Example 4). In kind it is in vivo, Fusarium oxysporum f, cucumerinum. Particulars: Fusarium, soil, 336 h, read-out: Percentage of healthy seedlings. Summed up:
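Pots of steam-sterilized soil mixed with 20 g infested soil, sown with 18 cucumber seeds (Tokiwazibai), drenched with 100 ml aqueous suspension of 80% wettable powder. Benlate 50% wettable powder run as control. Disease scored two weeks after planting as percentage of healthy seedlings.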

Data set [6] concerns cucumber (variety; Tokiwazibai). Put plainly: Phytotoxicity on cucumber (Experimental Example 4). The format is in vivo. Particulars: 500 ppm. The method, then:
Exterminating test on Fusarium wilt of cucumber Twenty (20) grams of infected soil was added uniformly into each pot which was filled with steam sterilized field soil, then 18 seeds of cucumber (variety; Tokiwazibai) were sowed in each pot. Eighty percent (80%) wettable powder of the present invention was diluted with water to obtain a suspension, and each pot was drenched with the suspension in an amount of 100 ml. Fifty percent (50%) wettable powder of methyl-1-(butylcarbamoyl) 2-benzimidazol carbamate (hereinafter referred to as Benlate) on the market was used as a control and tested by the same method. After two weeks of planting, degrees attacked by the pathogen was observed and a "percentage of healthy seedlings" was calculated as follows: [formula]

For data set [7], the system named is Aspergillus niger. Put plainly: Minimum inhibitory amount, dilution methods (Example 24). Particulars: Aspergillus niger, read-out: Minimum inhibitory amount. The format is cell-based. An excerpt: (§1) Bactericidal activity and fungicidal activity of the active compounds of the present invention were examined by potato-dextrose agar dilution method, or [2] glucose bouillon medium dilution method. The results are shown in Table 10 below as the minimum inhibitory concentration (the minimum concentration of active compound found to produce 100% control of the test bacteria and fungi).

Data set [8] concerns Bacillus subtilis. The data set is described as above. Particulars: Bacillus subtilis, read-out: Minimum inhibitory amount. In kind it is cell-based.
Description: as §1

In data set [9] the test system is Cladosporium harbarum. The data set is described as above. The format is cell-based. Particulars: Cladosporium, read-out: Minimum inhibitory amount.
Description: as §1

In data set [10] the test system is Escherichia coli. The data set is described as above. In kind it is cell-based. Particulars: Escherichia coli, read-out: Minimum inhibitory amount.
Description: as §1

Data set [11] concerns Penicillium Citrinum. The data set is described as above. In kind it is cell-based. Particulars: Penicillium citrinum, read-out: Minimum inhibitory amount.
Description: as §1

The subject of data set [12] is Staphylococcus aureus. Described as above. Particulars: Staphylococcus aureus, read-out: Minimum inhibitory amount. The format is cell-based.
Description: as §1

Converted amounts (≈) assume the structure as drawn.

In the case of `CNC(=O)Oc1ccccc1C(=O)NC=C(Cl)Cl` [Compound No. 19, O-(N'-methylcarbamoyl)-N-(2,2-dichlorovinyl) salicylamide], in data set [1], the Percentage of healthy seedlings at 0.25 g/box turned out to be 64.7%. Also, the Phytotoxicity result in [2], in data set [4] and in [6] was “Nil” each time. For the same compound, the pest or weed control at 1000 ppm in [3] came to 65%. Besides, the pest or weed control at 500 ppm in data set [5] turned out to be 38%. Besides, the MIC in data set [7] stood at 20 µg/mL (≈ 69.2 µM); in [8] it was 10 µg/mL (≈ 34.6 µM); in [9], 5 µg/mL (≈ 17.3 µM); in [10], 60 µg/mL (≈ 208 µM); in [11], 10 µg/mL (≈ 34.6 µM); in data set [12], 10 µg/mL (≈ 34.6 µM).
